According to ChEMBL document CHEMBL1201862, “PubChem BioAssay data set” (2004):
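Assay format: 96-well plates, 48-hour exposure. The concentration for 50% growth inhibition is given as GI50.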 Calls of active or inactive are those of the source. Cut-off read from the data, not from the text of the source: active = GI50 up to about 1.1 µM and inactive = higher.

Columns and labels:
Assay in all cases: growth of human tumour cells (NCI), 48 h
[1] = tested on: 786-0
[2] = tested on: A498
[3] = tested on: A549
[4] = tested on: ACHN
[5] = tested on: CAKI-1
[6] = tested on: CCRF-CEM
[7] = tested on: COLO 205
[8] = tested on: HCC 2998
[9] = tested on: HCT-116
[10] = tested on: HCT-15
[11] = tested on: HL-60
[12] = tested on: HOP-62
[13] = tested on: HOP-92
[14] = tested on: IGROV-1
[15] = tested on: K562
[16] = tested on: KM12
[17] = tested on: LOX IMVI
[18] = tested on: M14
[19] = tested on: MCF7
[20] = tested on: MDA-N
[21] = tested on: MOLT-4
[22] = tested on: Malme-3M
[23] = tested on: NCI-H226
[24] = tested on: NCI-H23
[25] = tested on: NCI-H460
[26] = tested on: NCI/ADR-RES
[27] = tested on: OVCAR-3
[28] = tested on: OVCAR-5
[29] = tested on: OVCAR-8
[30] = tested on: PC-3
[31] = tested on: RPMI-8226
[32] = tested on: RXF 393
[33] = tested on: SF-268
[34] = tested on: SF-295
[35] = tested on: SF-539
[36] = tested on: SK-MEL-28
[37] = tested on: SK-MEL-2
[38] = tested on: SK-MEL-5
[39] = tested on: SK-OV-3
[40] = tested on: SN12C
[41] = tested on: SNB-19
[42] = tested on: SNB-75
[43] = tested on: SR
[44] = tested on: SW-620
[45] = tested on: T47D
[46] = tested on: TK-10
[47] = tested on: U-251
[48] = tested on: UO-31
[49] = tested on: DU-145
[50] = tested on: EKVX
[51] = tested on: HT-29
[52] = tested on: Hs-578T
[53] = tested on: MDA-MB-231
[54] = tested on: MDA-MB-435
[55] = tested on: NCI-H522
[56] = tested on: OVCAR-4
[57] = tested on: UACC-257
[58] = tested on: UACC-62

Compound: CC(=O)c1c[nH]cc1CO
- GI50 [1]: > 10 µM (inactive)
- GI50 [2]: > 10 µM (inactive)
- GI50 [3]: > 10 µM (inactive)
- GI50 [4]: > 10 µM (inactive)
- GI50 [5]: > 10 µM (inactive)
- GI50 [6]: > 10 µM (inactive)
- GI50 [7]: > 10 µM (inactive)
- GI50 [8]: > 10 µM (inactive)
- GI50 [9]: > 10 µM (inactive)
- GI50 [10]: > 10 µM
- GI50 [11]: > 10 µM (inactive)
- GI50 [12]: > 10 µM (inactive)
- GI50 [13]: > 10 µM (inactive)
- GI50 [14]: > 10 µM (inactive)
- GI50 [15]: > 10 µM (inactive)
- GI50 [16]: > 10 µM (inactive)
- GI50 [17]: > 10 µM (inactive)
- GI50 [18]: > 10 µM (inactive)
- GI50 [19]: > 10 µM (inactive)
- GI50 [20]: > 10 µM (inactive)
- GI50 [21]: > 10 µM (inactive)
- GI50 [22]: > 10 µM (inactive)
- GI50 [23]: > 10 µM (inactive)
- GI50 [24]: > 10 µM (inactive)
- GI50 [25]: > 10 µM (inactive)
- GI50 [26]: > 10 µM (inactive)
- GI50 [27]: > 10 µM (inactive)
- GI50 [28]: > 10 µM (inactive)
- GI50 [29]: > 10 µM (inactive)
- GI50 [30]: > 10 µM (inactive)
- GI50 [31]: > 10 µM (inactive)
- GI50 [32]: > 10 µM (inactive)
- GI50 [33]: > 10 µM (inactive)
- GI50 [34]: > 10 µM (inactive)
- GI50 [35]: > 10 µM (inactive)
- GI50 [36]: > 10 µM (inactive)
- GI50 [37]: > 10 µM (inactive)
- GI50 [38]: > 10 µM (inactive)
- GI50 [39]: > 10 µM (inactive)
- GI50 [40]: > 10 µM (inactive)
- GI50 [41]: > 10 µM (inactive)
- GI50 [42]: > 10 µM (inactive)
- GI50 [43]: > 10 µM (inactive)
- GI50 [44]: > 10 µM (inactive)
- GI50 [45]: > 10 µM (inactive)
- GI50 [46]: > 10 µM (inactive)
- GI50 [47]: > 10 µM (inactive)
- GI50 [48]: > 10 µM (inactive)

Compound: NC(=O)CC(Nc1ncc2c(n1)-c1ccccc1OC2)C(=O)O (centres undefined)
- GI50 [1]: > 100 µM (inactive)
- GI50 [3]: > 100 µM (inactive)
- GI50 [4]: > 100 µM (inactive)
- GI50 [5]: 43.1 µM (inactive)
- GI50 [6]: > 100 µM (inactive)
- GI50 [7]: > 100 µM (inactive)
- GI50 [49]: > 100 µM (inactive)
- GI50 [50]: 59.6 µM (inactive)
- GI50 [9]: > 100 µM (inactive)
- GI50 [10]: 85.7 µM
- GI50 [11]: 14.9 µM (inactive)
- GI50 [12]: > 100 µM (inactive)
- GI50 [13]: > 100 µM (inactive)
- GI50 [51]: 64.3 µM (inactive)
- GI50 [52]: > 100 µM (inactive)
- GI50 [14]: 24.2 µM (inactive)
- GI50 [15]: > 100 µM (inactive)
- GI50 [16]: > 100 µM (inactive)
- GI50 [17]: > 100 µM (inactive)
- GI50 [18]: > 100 µM (inactive)
- GI50 [19]: 77.6 µM (inactive)
- GI50 [53]: > 100 µM (inactive)
- GI50 [54]: > 100 µM (inactive)
- GI50 [20]: > 100 µM (inactive)
- GI50 [21]: > 100 µM (inactive)
- GI50 [22]: 92 µM (inactive)
- GI50 [23]: 71.1 µM (inactive)
- GI50 [24]: > 100 µM (inactive)
- GI50 [25]: > 100 µM (inactive)
- GI50 [55]: > 100 µM (inactive)
- GI50 [26]: > 100 µM (inactive)
- GI50 [27]: > 100 µM (inactive)
- GI50 [56]: > 100 µM (inactive)
- GI50 [28]: > 100 µM (inactive)
- GI50 [29]: > 100 µM (inactive)
- GI50 [30]: > 100 µM (inactive)
- GI50 [31]: 26 µM (inactive)
- GI50 [32]: > 100 µM (inactive)
- GI50 [33]: > 100 µM (inactive)
- GI50 [34]: > 100 µM (inactive)
- GI50 [35]: > 100 µM (inactive)
- GI50 [36]: > 100 µM (inactive)
- GI50 [37]: > 100 µM (inactive)
- GI50 [38]: > 100 µM (inactive)
- GI50 [39]: > 100 µM (inactive)
- GI50 [40]: > 100 µM (inactive)
- GI50 [41]: > 100 µM (inactive)
- GI50 [42]: 67.9 µM (inactive)
- GI50 [43]: > 100 µM (inactive)
- GI50 [44]: > 100 µM (inactive)
- GI50 [46]: > 100 µM (inactive)
- GI50 [47]: > 100 µM (inactive)
- GI50 [57]: 61.7 µM (inactive)
- GI50 [58]: > 100 µM (inactive)
- GI50 [48]: > 100 µM (inactive)

Compound: COc1cc(OC)cc(Oc2nc3cc(N)cc(N)c3nc2-c2ccccc2)c1
- GI50 [1]: 2.19 µM (inactive)
- GI50 [2]: 1.95 µM (inactive)
- GI50 [4]: 4.25 µM (inactive)
- GI50 [5]: 4.19 µM (inactive)
- GI50 [49]: 4.52 µM (inactive)
- GI50 [30]: 3.85 µM (inactive)
- GI50 [31]: 2.86 µM (inactive)
- GI50 [32]: 1.02 µM (active)
- GI50 [40]: 4.4 µM (inactive)
- GI50 [46]: 1.73 µM (inactive)
- GI50 [48]: 3.44 µM (inactive)

Compound: CC1(C)CSCC(C)(C)C(=N/N)/C1=N\N
- GI50 [1]: > 100 µM (inactive)
- GI50 [2]: > 100 µM (inactive)
- GI50 [3]: > 100 µM (inactive)
- GI50 [4]: > 100 µM (inactive)
- GI50 [5]: > 100 µM (inactive)
- GI50 [7]: > 100 µM (inactive)
- GI50 [49]: > 100 µM (inactive)
- GI50 [50]: > 100 µM (inactive)
- GI50 [8]: > 100 µM (inactive)
- GI50 [9]: > 100 µM (inactive)
- GI50 [10]: > 100 µM
- GI50 [11]: > 100 µM (inactive)
- GI50 [12]: > 100 µM (inactive)
- GI50 [13]: > 100 µM (inactive)
- GI50 [51]: > 100 µM (inactive)
- GI50 [14]: > 100 µM (inactive)
- GI50 [15]: > 100 µM (inactive)
- GI50 [16]: > 100 µM (inactive)
- GI50 [17]: > 100 µM (inactive)
- GI50 [18]: > 100 µM (inactive)
- GI50 [19]: > 100 µM (inactive)
- GI50 [54]: > 100 µM (inactive)
- GI50 [20]: > 100 µM (inactive)
- GI50 [22]: > 100 µM (inactive)
- GI50 [23]: > 100 µM (inactive)
- GI50 [24]: > 100 µM (inactive)
- GI50 [25]: > 100 µM (inactive)
- GI50 [55]: > 100 µM (inactive)
- GI50 [26]: > 100 µM (inactive)
- GI50 [27]: > 100 µM (inactive)
- GI50 [28]: > 100 µM (inactive)
- GI50 [29]: > 100 µM (inactive)
- GI50 [30]: > 100 µM (inactive)
- GI50 [33]: > 100 µM (inactive)
- GI50 [34]: > 100 µM (inactive)
- GI50 [35]: > 100 µM (inactive)
- GI50 [36]: > 100 µM (inactive)
- GI50 [37]: > 100 µM (inactive)
- GI50 [38]: > 100 µM (inactive)
- GI50 [39]: > 100 µM (inactive)
- GI50 [40]: > 100 µM (inactive)
- GI50 [41]: > 100 µM (inactive)
- GI50 [42]: > 100 µM (inactive)
- GI50 [43]: > 100 µM (inactive)
- GI50 [44]: > 100 µM (inactive)
- GI50 [45]: > 100 µM (inactive)
- GI50 [46]: > 100 µM (inactive)
- GI50 [47]: > 100 µM (inactive)
- GI50 [57]: > 100 µM (inactive)
- GI50 [58]: > 100 µM (inactive)
